Source: ChEMBL document CHEMBL1151727, “Citrullination of linear and cyclic altered peptide ligands from myelin basic protein (MBP(87-99)) epitope elicits a Th1 polarized response by T cells isolated from multiple sclerosis patients: implications in triggering disease” (J Med Chem, 2008)
Calls of active or inactive are those of the source. Where a SMILES comes first, the peptide text is derived from it. [ ]: non-standard residue; d: D form. Cit = NC(=O)NCCC[C@H](N)C(=O)O

How the values were obtained:
Format in all cases: functional, cell-based
PBMC [1] = test: Induction of IL10 secretion in healthy human PBMC at 10 pg/mL per 10^6 cells after 72 hrs by ELISA
PBMC [2] = test: Decrease in IL10 secretion in PBMC isolated from multiple sclerosis patient at 10 pg/mL per 10^6 cells after 72 hrs by ELISA; conditions: Homo sapiens
PBMC [3] = test: Induction of IFN-gamma secretion in healthy human PBMC at 10 pg/mL per 10^6 cells after 72 hrs by ELISA
PBMC [4] = test: Increase in IFN-gamma secretion in PBMC isolated from multiple sclerosis patient at 10 pg/mL per 10^6 cells after 72 hrs by ELISA; conditions: Homo sapiens
PBMC [5] = test: Increase in IL2 secretion in PBMC isolated from multiple sclerosis patient at 10 pg/mL per 10^6 cells after 72 hrs by ELISA; conditions: Homo sapiens

Measured: Activity

CC[C@H](C)[C@H](NC(=O)[C@H](CC(N)=O)NC(=O)[C@H](CCCCN)NC(=O)[C@H](Cc1ccccc1)NC(=O)[C@H](Cc1ccccc1)NC(=O)[C@H](Cc1cnc[nH]1)NC(=O)[C@@H](N)C(C)C)C(=O)N[C@H](C(=O)N[C@H](C(=O)N1CCC[C@H]1C(=O)N[C@@H](CCCNC(=N)N)C(=O)N[C@H](C(=O)N1CCC[C@H]1C(=O)O)[C@@H](C)O)[C@@H](C)O)C(C)C
active: PBMC [1] | PBMC [2]

CC[C@H](C)[C@H](NC(=O)[C@H](CC(N)=O)NC(=O)[C@H](CCCNC(N)=O)NC(=O)[C@H](Cc1ccccc1)NC(=O)[C@H](Cc1ccccc1)NC(=O)[C@H](Cc1cnc[nH]1)NC(=O)[C@@H](N)C(C)C)C(=O)N[C@H](C(=O)N[C@H](C(=O)N[C@@H](C)C(=O)N[C@@H](CCCNC(N)=O)C(=O)N[C@H](C(=O)N1CCC[C@H]1C(=O)O)[C@@H](C)O)[C@@H](C)O)C(C)C (H-VHFF[Cit]NIVTA[Cit]TP-OH)
active: PBMC [1] | PBMC [3] | PBMC [2] | PBMC [4] | PBMC [5]

H-VHFFRNIVTARTP-OH
active: PBMC [1] | PBMC [3]
